Ends that are not written are not given here. spacer = not defined here
Tests used:
[1] = test system: human MSCs; test: Capture of MSCs from a mixed cell population with peptide on CELLECTION magnetic beads; format: cell-based; conditions: starting mixture 38% IM9, 56% U937, 4% MSC; FIG. 17C
From the text: In this experiment, biotinylated cell binding peptide, SEQ ID NO: 16, was attached to CELLECTION magnetic beads. The CELLECTION beads have streptavidin coupled to a magnetic particle through a DNA linker. Three different cell types, human MSCs, IM-9, and U937 cells were differentially labeled with […] dye and mixed in a ratio such that the MSCs represented ˜4% of the starting cell mixture (the percentage of each cell type in the starting mixture was 38% IM9, 56% U937, and 4% MSC). The cell binding peptide, SEQ ID NO: 16, was biotinylated as described herein at Example 2, as was a general cell binding peptide for use as a control peptide in the experiment. Magnetic particles with no peptide attached, as well as magnetic beads having attached either the cell binding peptide, SEQ ID NO: 16, or the control peptide were tested for their ability to capture human MSCs. The starting cell mixture was incubated with magnetic beads having either attached peptide or no peptide, the beads were washed, and the captured cells were released from the beads by DNase treatment. The cells were measured by flow cytometry histograms shown in 17A-17C. The magnetic beads without peptide captured little or no cells (FIG. 17B). The magnetic beads with attached cell binding peptide SEQ ID NO: 16 captured a cell population that was 96% MSCs (FIG. 17C).

[2] = test system: MSCs captured from bone marrow aspirate; test: Immunoreactivity of captured cells for surface antigens; format: cell-based, human; conditions: CD29(+), CD44(+), CD73(+), CD166(+), CD90(+), CD45(−), CD34(−)
Procedure: (§1) This experiment was performed to examine the ability of cell binding peptide SEQ ID NO: 4 to capture MSCs directly from bone marrow aspirate in comparison to two separate antibodies against the CD105 I antigen (CD105) and the MSCA-1 stem cell antigen (MSCA-1). This experiment employed biotinylated peptides with streptavidin-coated […] magnetic beads. The peptides were biotinylated as described herein at Example 2. […] For the antibody capture experiment, magnetic beads having covalently attached CD105 or MSCA-1 antibody were employed ([…]). Prior to incubation with the peptides and antibodies, bone marrow aspirate (BMA) was mixed with 5 volumes of 10 mM ammonium chloride for 1-2 min at room temperature to lyse red blood cells. The lysate was centrifuged for 5 min at 300×g and the supernatant discarded. The cell pellet was washed with wash buffer (PBS+0.5% bovine serum albumin+0.5 mM EDTA) and cells were resuspended in […] peptide at a concentration of 10^8 per mL. For peptide binding studies, the cell suspension was incubated with the biotinylated peptides for 30 min at 4° C. to allow for binding. After incubation, cells were spun down at 300×g for 5 min, and peptide solution was aspirated. Cells were then rinsed twice with wash buffer, with centrifugation between washes. […] Colony forming units (CFUs) were counted after 14 days in culture. […]

[3] = test system: dermal fibroblasts; test: Biotinylated peptide cell binding specificity by flow cytometry (Neutravidin-PE); design: species or system human; conditions: 30 min at 4° C., FIG. 15
From the text: (§2) The synthetic biotinylated cell binding peptide SEQ ID NO: 4 was examined for its ability to specifically bind MSCs compared to a number of other cells types including adipose-derived mesenchymal stem cells (ASCs), dermal fibroblasts, rodent MSCs, red blood cells, monocytes, lymphocytes and granulocytes. The cell binding peptide was biotinylated as described herein at Example 2. Cultured cells of each type were either purchased (ASCs and dermal fibroblasts) or isolated from rodent bone marrow (rodent MSCs) or human blood. Cells were first harvested and resuspended at 10^6/mL in PBS+2% fetal bovine serum (FBS). An aliquot of cells (50 μL) was incubated in 50 μL of peptide solution (25 μM in PBS+FBS) for 30 min at 4° C. Cells were then washed twice in PBS+FBS with 300×g centrifugation for 5 min between washes. Fluorescently-tagged neutravidin (Neutravidin-PE from INVITROGEN) was then added to the cells to label biotinylated peptide bound to cells. Neutravidin-PE was diluted 1:250 from stock and applied at 50 μL to cells. Cells were then washed in PBS+FBS, and acquired on a BD […]. Peptide reactivity was then measured as percent positivity relative to Neutravidin-PE staining without the addition of biotinylated peptide.

[4] = test system: MSCs directly from bone marrow aspirate; test: Capture of MSCs from bone marrow aspirate, colony forming units after 14 days; format: cell-based, human; conditions: streptavidin-coated MILTENYI beads, FIG. 18
Procedure: as §1

[5] = test system: MSCs captured from bone marrow; test: Chondrocyte differentiation of captured MSCs (aggrecan immunostaining); format: cell-based, human; conditions: 24 days in CHONDRODIFF medium, FIG. 21
Procedure: Chondrocyte differentiation. To examine chondrocyte differentiation, the MSCs present in the […] column eluants (see Example 6) were pelleted by centrifugation at 150×g for 5 minutes. Cells were washed once with 1 ml MACS NH CHONDRODIFF Medium without disturbing the pellet. Cells were spun again and 1 mL CHONDRODIFF Medium was added to each pellet. Every third day, medium was aspirated and replaced with fresh pre-warmed medium. After 24 days in culture, cells exposed to CHONDRODIFF medium formed cartilage plugs or nodules, whereas control cells formed only loose or small nodules. Cells were washed once with PBS and fixed in neutral buffered formalin overnight. Sections were embedded in paraffin and sectioned at 5 microns. Sections were examined by hemotoxylin and eosin staining (data not shown). Sections were further examined by immunostaining for aggrecan, a major structural component of cartilage. In FIG. 21, sections from the periphery (panels A and B) or center (panels C and D) were incubated with an antibody against aggrecan (ABCAM) (panels B and D) or with secondary detection reagents only as a control (panels A and C), then counterstained with DAPI to reveal cell nuclei. […] Control images of captured cells grown in the absence of differentiation medium could not be taken due to the small and loose nature of nodules.

[6] = test system: human ASCs; test: Biotinylated peptide cell binding specificity by flow cytometry (Neutravidin-PE); conditions: 30 min at 4° C., FIG. 15
From the text: as §2

[7] = test system: human MSCs; test: as above; conditions: 30 min at 4° C., FIG. 15
From the text: as §2

[8] = test system: MSCs captured from bone marrow; test: Adipocyte differentiation of captured MSCs (Oil Red O); format: cell-based, human; conditions: 21 days in adipocyte differentiation medium, FIG. 20 A/B
Procedure: Adipocyte differentiation. After capture of MSCs using cell binding peptide SEQ ID NO: 4 with the […] magnetic system according to Example 6, the ability of the captured cells to differentiate into an adipocyte lineage was examined. The MSCs present in the […] column eluants (see Example 6) were cultured for 21 days in complete medium (DMEM, 10% FBS, 100 units/mL penicillin, 100 μg/mL streptomycin, and 2 mM glutamine) supplemented with 0.5 mM isobutyl methylxanthine, 1 μM dexamethasone, 10 μM insulin, 200 μM indomethacin, and 1% antibiotic/antimycotic. Following the 21 day incubation, the cells were fixed in 4% paraformaldehyde in PBS for 15 minutes, washed in 60% isopropanol for 5 minutes, and stained with Oil Red O (SIGMA) for 10 minutes to determine the extent of adipogenesis (see FIG. 20, panels A (undifferentiated MSCs) and panel B (adipocyte differentiated MSCs)). The image of the adipose differentiated cells (FIG. 20, panel B) contains a larger magnification inset where the lipid vacuoles are clearly visible.

[9] = test system: human MSCs from bone marrow aspirate; test: Capture of cultured MSCs with biotinylated peptide on […] streptavidin microbeads in LS columns; format: cell-based; conditions: 160,000 cultured human MSCs, peptide 20 μM on streptavidin microbeads, FIG. 16
Procedure: In this experiment the ability of the biotinylated cell binding peptide SEQ ID NO: 4 to capture human MSCs from a homogeneous cultured cell population was examined. The cell binding peptide SEQ ID NO: 4 was biotinylated as described herein at Example 2. The cell binding peptide SEQ ID NO: 4, and a non-binding control peptide, were added to separate 300 μl volumes of […] BIOTEC Streptavidin microbeads at a concentration of 20 μM. These beads are made from iron filings, coated with a dextran coating which is functionalized with streptavidin moieties. Peptide was incubated with beads for 45 min on ice. The 300 μl of peptide coated microbeads were added to pre-equilibrated LS columns outside of the magnetic field to evenly distribute the magnetic beads throughout the columns. Columns were then placed into a magnetic field, and excess peptide was washed away with buffer while retaining the peptide coated microbeads. Cultured and expanded human MSCs from bone marrow aspirate (160,000 cells; LONZA) were added to each LS column and allowed to pass through by gravity flow. Flowthrough was collected and cycled through the columns 5 times, after which the columns were washed with 5 ml buffer. […] The collected flowthrough with 5 ml wash and eluted cells were spun down, resuspended in a smaller volume, and counted by hemacytometer (see FIG. 16). […]

[10] = test system: MSCs captured from bone marrow; test: Osteoblast differentiation of captured MSCs (Alizarin Red S); format: cell-based, human; conditions: 14 days in osteoblast differentiation medium, FIG. 20 C/D
Procedure: Osteoblast differentiation. For osteogenic differentiation, the MSCs present in the […] column eluants (see Example 6) were cultured for 14 days in complete medium supplemented with 0.1 μM dexamethasone, 50 μM ascorbate-2-phosphate, 10 mM β-glycerophosphate, and 1% antibiotic/antimycotic. Calcium mineralization was measured by Alizarin Red S (SIGMA) staining to reveal mineralizing osteoblasts (see FIG. 20, panel C (undifferentiated MSCs) and panel D (osteoblast differentiated MSCs)).

Sequence | MSCs in captured cell population [1] [%] | immunoreactivity of isolated cells compared with CD105 isolated cells [2] | binding to dermal fibroblasts (percent positivity relative to Neutravidin-PE staining) [3] | MSC capture (CFUs after 14 days in culture) [4] | aggrecan in nodules formed from captured MSCs [5] | binding to human ASCs (percent positivity relative to Neutravidin-PE staining) [6] | binding to human MSCs (percent positivity relative to Neutravidin-PE staining) [7] | adipogenesis of captured MSCs [8] | capture of the MSCs [9] | osteogenic differentiation of captured MSCs [10]
SSFRFGPLGTWNYPSTDNAE (also: biotin, position not given here, on magnetic beads) [SEQ ID NO: 16, tested biotinylated on CELLECTION magnetic beads] | 96 |  |  |  |  |  |  |  |  | 
SSFWDVCQGDGTCYGGGSR (SSFWDVCQGDGTCYGGGSR-{spacer-biotin}; cysteine pairing not given here; reading uncertain; also: C-terminal spacer not given here) [SEQ ID NO: 4, tested biotinylated with a C-terminal spacer] |  | no changes were observed | high binding | as efficient as capture by either of the CD105 or MSCA-1 antibodies | aggrecan could be detected | high binding | high binding | adipogenesis pathway remains intact | approximately 70% | osteogenic pathway remains intact

Reference: patent publication US20110117171A1, “IMPLANTABLE BONE GRAFT MATERIALS” (AFFINERGY, INC., priority 2009, published 2011)
